Data from patent US20260315609A1, “MIXED VASOPRESSIN RECEPTOR AGONIST-ANTAGONIST FOR TREATING END-STAGE LIVER DISEASE AND COMPLICATIONS ASSOCIATED THEREOF” (FERRING B.V., priority 2022, published 2026).
“And” between values parts separate entries of the source, which are not always exact repeats. Equal entries are not always repeated. Starred links: 1 amine or outer side, 2 acyl side, 3 side chain; linkers in the order of their positions; H or OH if unused. Positions of bridges follow the written chain, without caps; N, C: chain ends. Non-standard residues stand in square brackets, D forms with d. Residues, ends and D or L forms follow the SMILES beside them. Chains are numbered I, II in the order given. *: point of attachment. isoGln = NC(=O)[C@H](CCC(=O)[*:2])N[*:1]; εLys = N[C@@H](CCCCN[*:1])C(=O)[*:2]; Dab = NCC[C@H](N)C(=O)O; PhAc = O=C(Cc1ccccc1)*

Experiments:
[1] = Metabolite pattern (M1, M5) in human plasma after i.v. infusion and s.c. injection; format: in vivo
Description: Urinalysis was performed locally by means of a dip-stick test. […] In case any result of the dipstick was abnormal and clinically significant, a new urine test was to be performed. If the abnormal result was confirmed, further examination could be initiated at the discretion of the Investigator. Clinically significant abnormal findings were reported as AEs. The metabolite pattern of Compound 1 in plasma and urine were measured.
In some instances, an objective of the study was to investigate metabolite pattern of Compound 1 in plasma and urine.
Due to analytical method interference, it was not possible to analyses for metabolites in human urine. After i.v. administration, the metabolite M1 was present only at low concentrations in one subject in the male and 4 subjects in the female dose group 0.6 mg, while it was present in all females and 5 of the 6 males in the 0.9 mg dose group, albeit with few exceptions below LOQ (FIG. 44, panel A).

rV1a receptor = biological target: T1, rV1a receptor (Rattus norvegicus, UniProt P30560); assay: FLIPR calcium assay, rat V1a (A7r5 cells); format: cell-based; details: A7R5, read-out: % MPE
T1 construct: endogenously expressing rV1a; host or cells: A7r5 rat thoracic aorta smooth muscle cells
T1 sequence (P30560 whole entry): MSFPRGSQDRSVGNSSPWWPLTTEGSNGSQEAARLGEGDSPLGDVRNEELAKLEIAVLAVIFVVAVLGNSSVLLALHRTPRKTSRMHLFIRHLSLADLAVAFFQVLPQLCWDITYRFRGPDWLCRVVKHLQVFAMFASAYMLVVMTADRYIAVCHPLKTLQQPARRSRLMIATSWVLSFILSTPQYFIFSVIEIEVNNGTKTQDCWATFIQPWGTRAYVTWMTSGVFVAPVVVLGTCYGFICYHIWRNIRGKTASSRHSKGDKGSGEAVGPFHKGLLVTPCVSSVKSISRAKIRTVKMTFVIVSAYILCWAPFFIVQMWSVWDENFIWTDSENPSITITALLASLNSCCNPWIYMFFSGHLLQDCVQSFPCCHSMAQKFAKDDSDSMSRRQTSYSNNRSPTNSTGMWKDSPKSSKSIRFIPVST
Description: Cell Lines. Studies were conducted with cell lines expressing rat (r) or human (h) Via, V1b, V2, or OT receptors. For the experiments with human receptors, human embryonic kidney (HEK)-flp-in cells stably expressing the lacZ-Zeocin™ fusion gene were used for expression of hV1a and hV1b. These cells were designed for use with the Flp-In™ expression vector containing the gene of interest (here hV1a or hV1b) and the Flp recombinase expression plasmid, pOG44. For hV2 and hOTR, HEK-293 cells transiently expressing hV2 were used.
Functional Cell-Based Assays.

blood lactate = assay: Blood lactate in cynomolgus monkeys after SC Compound 1; format: in vivo, cynomolgus monkey; details: 15-360 min
Description: Blood samples (0.5 mL in EDTA) were collected from a femoral or saphenous vein before dosing and at multiple times continuing out to 480 min after administration. Lactate concentration was also measured as part of PD analysis and collected as EDTA whole blood from the pre-dose, 15-, 40-, 90-, 180-, and 360-min post-administration samples immediately after collection using a Lactate Plus (Nova Biomedical) meter. For blood sample analysis, plasma was prepared from whole blood. Subsequent bioanalysis included compound extraction followed by standard LC/MS methods to determine compound concentration in each sample.

[2] = test system: bile duct ligation (BDL) and ascites rat model; assay: Bile duct ligation (BDL) and ascites rats, SC b.i.d. 5 days; format: in vivo; details: for Animal Body Weight: 99.5 μg FB/kg SC b.i.d.
Description: Animals: Male Sprague Dawley rats weighing 300-400 grams with bile duct ligations (BDL) performed at 7 weeks of age by the vendor (Harlan, IN). BDL rats were administered 50 μg of vitamin K1 at the time of BDL surgery, prior to shipment, and then once weekly to reduce potential mortality from hemorrhagic complications.
The working solution was stored at 4° C. over the course of the study and warmed to room temperature for 30 minutes before administration.
Animals were weighed daily. […] Each metabolic cage was set up for continuous measurement of spontaneous urine output via force transducers placed […] the urine collection vials to monitor and record the time course of urine output. Data from the calibrated force transducers every time the rats void. […] Only 16 metabolic cages could be used, urine, water, and food intake data were not collected for one animal in the vehicle group. Animals were returned to their home cages for the remainder of the study and were sacrificed before the second treatment on the fifth day. Blood samples were collected from each animal via cardio puncture. Laparotomies were performed and ascites fluid collected and volume measured by pipet. Spleens were dissected from each animal, any excessive fat or connective tissue was removed and the spleens were weighted.

[3] = test system: methionine/choline-deficient (MCD) diet rats; assay: MAP / ΔMAP in methionine/choline-deficient (MCD) diet rats; format: in vivo, rat; details: for Δ MAP (mean): SC, MCD diet rats
Description: The terlipressin dose was 100 μg/kg.
Data were evaluated as change […] from baseline.

CC[C@H](C)[C@@H]1NC(=O)[C@H](Cc2ccccc2)NC(=O)[C@@H](N)CSSC[C@@H](C(=O)N2CCC[C@H]2C(=O)N[C@@H](CCNC(=O)[C@@H](N)CCCCNC(=O)[C@H](CCCCNC(C)=O)NC(=O)CC[C@H](NC(=O)[C@H](CCCNC(=N)N)NC(=O)[C@@H]2CCCN2C(=O)[C@H](C)NC(=O)[C@H](CC(N)=O)NC(=O)[C@H](CCC(N)=O)NC(=O)[C@H](Cc2ccccc2)NC(=O)[C@@H](Cc2ccc(OC)cc2)NC(=O)Cc2ccccc2)C(N)=O)C(=O)NCC(N)=O)NC(=O)[C@H](CC(N)=O)NC(=O)[C@H](CCC(N)=O)NC1=O [Compound 1, Glycinamide, L-cysteinyl-L-phenylalanyl-L-isoleucyl-L-glutaminyl-L-asparaginyl-L-cysteinyl-L-prolyl-N4-(phenylacetyl-O-methyl-D-tyrosyl-L-phenylalanyl-L-glutaminyl-L-asparaginyl-L-alanyl-L-prolyl-L-arginyl-L-isoglutamyl-N5-acetyl-L-lysyl-L-ε-lysyl)-L-2,4-diaminobutyryl-, cyclic (1→6)-disulfide] (I: H-CFIQNCP[Dab]G-NH2 / II: PhAc-[dY](Me)FQNAPR[isoGln]K(Ac)[εLys]; disulfide I:1-I:6; amide I:8-II:C)
half-life ([1]; i.v.): ~4 h
half-life ([1]; s.c.): about 2 hours
conversion of Compound 1 to M1 ([1]; s.c. (bolus) injection, human): 80-90%
Emax (rV1a receptor): 30%
blood lactate versus pre-dose (blood lactate): not notably increased
Animal Body Weight ([2]; day 1): 362.4 g
Animal Body Weight ([2]; day 2): 330.2 g
Animal Body Weight ([2]; day 3): 324.6 g
Animal Body Weight ([2]; day 4): 329.0 g
Animal Body Weight ([2]; day 5): 329.8 ± 2.9 g and 329.8 g
Urine Volume ([2]; 5-24 hr): 31.2 mL
Urine Volume, Δ versus vehicle ([2]; 5-24 hr): 46%
Urine creatinine content ([2]; 5-24 hr): 9.5 mg
Urine creatinine content, Δ versus vehicle ([2]; 5-24 hr): −32%
Urine potassium content ([2]; 5-24 hr): 0.8 mEq
Urine potassium content, Δ versus vehicle ([2]; 5-24 hr): −60%
Urine sodium content ([2]; 5-24 hr): 1.1 mEq
Urine sodium content, Δ versus vehicle ([2]; 5-24 hr): 85%
Urine Volume ([2]; 4 hr): 9.8 mL
Urine Volume, Δ versus vehicle ([2]; 4 hr): 367%
Urine creatinine content ([2]; 4 hr): 2.7 mg
Urine creatinine content, Δ versus vehicle ([2]; 4 hr): 8%
Urine potassium content ([2]; 4 hr): 1.1 mEq
Urine potassium content, Δ versus vehicle ([2]; 4 hr): 394%
Urine sodium content ([2]; 4 hr): 2.6 mEq
Urine sodium content, Δ versus vehicle ([2]; 4 hr): 2342%
Net Fluid Balance ([2]; 24 hours (vehicle 10.0)): -24.3 mL
Urine Volume ([2]; 24 hr): 41.0 ± 4.3 mL and 41.0 mL
decrease in mean body weight ([2]; between day 1 and 2): 32.2 g
further decrease in mean body weight ([2]; between days 2 and 3): 5.6 g
BUN ([2]; day 5): 34 mg/dL
BUN, Δ versus vehicle ([2]; day 5): 64%
Cl ([2]; day 5): 100 mEq/L
Cl, Δ versus vehicle ([2]; day 5): −3%
Creatinine (blood) ([2]; day 5): 0.3 mg/dL
Na (blood) ([2]; day 5): 139 mEq/L
Na (blood), Δ versus vehicle ([2]; day 5): −1%
PHOS ([2]; day 5): 5.1 mg/dL
PHOS, Δ versus vehicle ([2]; day 5): −21%
difference in final body weight versus vehicle ([2]; day 5): 39.8 g
Spleen Weight ([2]; day 5 (vehicle 2.7)): 2.3 g
Ascites Volume ([2]; day 5 (vehicle 19.8)): 3.8 ± 1.8 mL and 3.8 mL
hyponatremia ([2]; repeat administration over 5 days): failed to provide hyponatremia
Δ MAP (mean) ([3]; 25 μg/kg, 0 min): 0.0 mmHg
Δ MAP (mean) ([3]; 25 μg/kg, 1 min): 1.1 mmHg
Δ MAP (mean) ([3]; 25 μg/kg, 2 min): 1.9 mmHg
Δ MAP (mean) ([3]; 25 μg/kg, 3 min): 2.6 mmHg
Δ MAP (mean) ([3]; 25 μg/kg, 5 min): 3.5 mmHg
Δ MAP (mean) ([3]; 25 μg/kg, 7 min): 4.0 mmHg
Δ MAP (mean) ([3]; 25 μg/kg, 10 min): 4.8 mmHg
Δ MAP (mean) ([3]; 25 μg/kg, 15 min): 5.3 mmHg
Δ MAP (mean) ([3]; 25 μg/kg, 20 min): 5.2 mmHg
Δ MAP (mean) ([3]; 25 μg/kg, 30 min): 4.4 mmHg
Δ MAP (mean) ([3]; 25 μg/kg, 60 min): 3.0 mmHg
Δ MAP (mean) ([3]; 25 μg/kg, 90 min): 3.1 mmHg
Δ MAP (mean) ([3]; 100 μg/kg, 0 min): 0.0 mmHg
Δ MAP (mean) ([3]; 100 μg/kg, 1 min): 2.0 mmHg
Δ MAP (mean) ([3]; 100 μg/kg, 2 min): 3.5 mmHg
Δ MAP (mean) ([3]; 100 μg/kg, 3 min): 4.4 mmHg
Δ MAP (mean) ([3]; 100 μg/kg, 5 min): 7.0 mmHg
Δ MAP (mean) ([3]; 100 μg/kg, 7 min): 8.5 mmHg
Δ MAP (mean) ([3]; 100 μg/kg, 10 min): 9.9 mmHg
Δ MAP (mean) ([3]; 100 μg/kg, 15 min): 11.0 mmHg
Δ MAP (mean) ([3]; 100 μg/kg, 20 min): 11.3 mmHg
Δ MAP (mean) ([3]; 100 μg/kg, 30 min): 10.6 mmHg
Δ MAP (mean) ([3]; 100 μg/kg, 60 min): 10.9 mmHg
Δ MAP (mean) ([3]; 100 μg/kg, 90 min): 9.2 mmHg
Δ MAP (mean) ([3]; 500 μg/kg, 0 min): 0.0 mmHg
Δ MAP (mean) ([3]; 500 μg/kg, 1 min): 2.2 mmHg
Δ MAP (mean) ([3]; 500 μg/kg, 2 min): 4.5 mmHg
Δ MAP (mean) ([3]; 500 μg/kg, 3 min): 6.4 mmHg
Δ MAP (mean) ([3]; 500 μg/kg, 5 min): 9.1 mmHg
Δ MAP (mean) ([3]; 500 μg/kg, 7 min): 12.1 mmHg
Δ MAP (mean) ([3]; 500 μg/kg, 10 min): 14.7 mmHg
Δ MAP (mean) ([3]; 500 μg/kg, 15 min): 13.6 mmHg
Δ MAP (mean) ([3]; 500 μg/kg, 20 min): 13.7 mmHg
Δ MAP (mean) ([3]; 500 μg/kg, 30 min): 11.4 mmHg
Δ MAP (mean) ([3]; 500 μg/kg, 60 min): 9.1 mmHg
Δ MAP (mean) ([3]; 500 μg/kg, 90 min): 10.2 mmHg
highest observed absolute MAP ([3]; SC 25 μg/kg): 79.2±1.4 mmHg
highest observed absolute MAP ([3]; SC 100 μg/kg): 86.8±2.5 mmHg
highest observed absolute MAP ([3]; SC 500 μg/kg): 90.4±3.7 mmHg
maximum ΔMAP ([3]; SC 25 g/kg (so in the source)): 5.3±1.1 mmHg
